Values quoted from earlier work as cited in patent publication US20080286363A1, “Pharmaceutical Compositions for the Treatment of Inflammatory and Obstructive Airways Diseases” (priority 2005, published 2008).

Conditions: aerosol formulation, single administration of a metered dose, asthma

C[N+]1(C)CCC(OC(=O)C(O)(c2ccccc2)C2CCCC2)C1.[Br-] (racemic) [Compound B1, 3-[(Cyclopentyl-hydroxyphenylacetyl)oxy]-1,1-dimethylpyrrolidinium bromide]
bronchodilation duration: up to 12 hours
